Reference: patent US5208344A, “Naphthalenepropionic acid derivatives as anti-inflammatory/antiallergic agents” (American Home Products Corporation, priority 1991, dated 1993)
pIC50: −log10 of the molar value. Structures can show the parent of a compound that is named as a salt.

Target: T1, 5-lipoxygenase (Homo sapiens, UniProt P09917)
T1 construct: Blood is obtained in 50-100 ml quantities from male donors; endogenous in cells; host or cells: human whole blood (leukocytes) from male donors
T1 sequence (P09917 1-674): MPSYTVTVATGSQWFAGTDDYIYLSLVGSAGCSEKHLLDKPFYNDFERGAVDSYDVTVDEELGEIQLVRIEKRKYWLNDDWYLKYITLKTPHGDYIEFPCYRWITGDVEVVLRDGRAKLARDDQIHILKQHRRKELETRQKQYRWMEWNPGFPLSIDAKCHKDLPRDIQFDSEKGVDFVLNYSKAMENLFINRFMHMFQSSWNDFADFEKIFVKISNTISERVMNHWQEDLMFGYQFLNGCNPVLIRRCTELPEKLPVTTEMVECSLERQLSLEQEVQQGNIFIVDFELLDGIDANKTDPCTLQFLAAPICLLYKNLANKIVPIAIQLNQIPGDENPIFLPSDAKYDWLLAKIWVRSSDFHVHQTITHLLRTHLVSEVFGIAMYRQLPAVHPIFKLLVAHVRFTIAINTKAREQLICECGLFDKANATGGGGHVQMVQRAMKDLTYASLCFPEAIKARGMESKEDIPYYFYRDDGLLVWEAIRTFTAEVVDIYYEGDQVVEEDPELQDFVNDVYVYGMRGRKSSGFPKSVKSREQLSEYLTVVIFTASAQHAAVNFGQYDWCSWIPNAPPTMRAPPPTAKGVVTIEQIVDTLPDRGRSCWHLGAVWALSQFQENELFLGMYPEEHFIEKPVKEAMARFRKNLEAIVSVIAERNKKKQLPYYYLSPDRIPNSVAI
Experiment: inhibition of 5-lipoxygenase in human whole blood (LTB4)
Format: cell-based
Experimental: The assay of this Example measures the ability of the compounds tested to inhibit 5-lipxygenase in human whole blood.
Blood is obtained in 50-100 ml quantities from male donors. White blood cell counts and differentials are made. Two ml of blood are placed in a 15 ml polypropylene test tube. Compounds are solubilized in dimethylsulfoxide and diluted 1:10 in 10% bovine serum albumin in phosphate buffered saline, pH 7.4 resulting in a final dimethylsulfoxide concentration of 0.1% in the blood. Then, compounds are added to the blood in a shaking water bath at 37° C. for 10 minutes prior to the addition of 30 μM calcium ionophore (A23187; Sigma). After ionophore administration, whole blood samples are mixed and incubated for 20 minutes at 37° C. in a shaking water bath. Incubation is terminated by placing samples in an ice bath and immediately adding ethylene glycol-bis-(β-aminoethyl ether)-N,N,N',N'-tetraacetic acid (10 mM). Samples are mixed and centrifuged at 1200×g for 15 minutes at 4° C. Preparation of samples for evaluation by RIA or ELISA is carried out by the following protocol. Plasma is removed from sample tubes, placed in 15 ml polypropylene test tubes containing 8 ml methanol, and then vortexed to precipitate protein. Samples are stored at -70° C. overnight. The next day, samples are centrifuged at 200×g for 15 minutes at 4° C. to pellet the precipitate. Samples are dried in a Savant speed vac concentrator, reconstituted to original volume with ice cold RIA or ELISA buffer, and stored at -70° C. until assayed. The assay for eicosanoids (LTB4, TxB2, and PGE2) is performed as described by the manufacturer of the [^3 H]-RIA kit or ELISA kit (LTB4 -Amersham, TxB2 and PGE2 - Caymen Chemical).
The total eicosanoid level in 2 ml of blood is calculated and reported as ng/10^6 neutrophils. Significance is determined by a one-way analysis of variance with least significant difference (LSD) comparisons to control (p≤0.05) and IC50 's (μM) are determined by regression analysis (Finney, 1978). Drug effects are expressed as percent change form control values.
Compounds tested in vitro are solubilized in dimethylsulfoxide and diluted 1:10 in 10% bovine serum albumin in phosphate buffer saline resulting in a final dimethylsulfoxide concentration of 0.1% in the blood.

Structure (SMILES)	inhibition at 25 µM (25 μM, human whole blood)	further results
CC(c1cc2ccccc2s1)N(O)C(N)=O (stereo not drawn) [Example A-64077, reference compound]	–	inhibition at 5 µM (read-out: % Inhibition of LTB4): 72%
CC(C)c1ccc2c(c1)c(SC(C)(C)C)c(CC(C)(C)C(=O)O)n2Cc1ccc(Cl)cc1 [L-663,536, reference compound]	–	inhibition at 3 µM (3 μM, human whole blood): 96%
CC(C)(NC(=O)NO)c1ccc2cc(OCc3nc4ccccc4s3)ccc2c1 [Example 37, N-[1-[6-(2-Benzothiazolylmethoxy)-2-naphthalenyl]-1-methyethyl]-N'-hydroxyurea]	43%	pIC50 (human whole blood): 4.29
C[C@H](C(=O)N(C)O)c1ccc2cc(OCc3nc4ccccc4s3)ccc2c1 [Example 41A, S-(+)-N-Hydroxy-α,N-dimethyl-6-(2-benzothiazolylmethoxy)-2-naphthaleneacetamide sodium salt hydrate]	–	% Inhibition of LTB4 (25 μM, human whole blood, sodium salt hydrate): 89%; pIC50 (human whole blood, sodium salt hydrate): 4.91
C[C@H](C(=O)O)c1ccc2cc(OCc3csc(-c4ccccc4)n3)ccc2c1 [Example 35, S-(+)-α-Methyl-6-[(2-phenyl-4-thiazolyl)-methoxy]-2-naphthaleneaceticacid]	28%	–
C[C@H](C(=O)O)c1ccc2cc(OCc3nc4ccccc4s3)ccc2c1 [Example 33, S-(+)-α-Methyl-6-(2-benzothiazolylmethoxy)-2-naphthaleneacetic acid]	54%	–
CC(C)(C(=O)O)c1ccc2cc(OCc3nc4ccccc4s3)ccc2c1 [Example 34, α,α-Dimethyl-6-(2-benzothiazolylmethoxy)-2-naphthaleneacetic acid]	13%	–

The next lines start with results.

inhibition at 25 µM (25 μM, human whole blood)	Structure (SMILES)	further results
11%	C[C@H](C(=O)O)c1ccc2cc(OCc3ccccn3)ccc2c1 [Example 42, S-(+)-α-Methyl-6-(2-pyridinylmethoxy)-2-naphthaleneacetic acid one tenth hydrate]	–
22%	C[C@H](C(=O)O)c1ccc2cc(OCc3nc4ccccc4o3)ccc2c1 [Example 46, S-(+)-α-methyl-6-(2-benzoxazolylmethoxy)-2-naphthaleneacetic acid]	–
12%	C[C@H](C(=O)O)c1ccc2cc(OCc3nc4ccccc4n3C)ccc2c1 [Example 43, S-(α)α-Methyl-6-[(1-methyl-1H-benzimidazol-2-yl)-methoxy]-2-naphthaleneacetic acid]	–
